US6054441A, “Oxypurine nucleosides and their congeners, and acyl derivatives thereof, for improvement of hematopoiesis” (priority 1995, dated 2000)

Experiments:
Type in all cases: in vivo, Balb/C mice
[1] = test system: hematopoiesis in normal mice; assay: Hematopoiesis in normal mice (Example 44)
Procedure: Normal, otherwise untreated, female Balb/C mice weighing approximately 20 grams each received a total of 4 or 9 0.4 ml intraperitoneal injections (one per day) of either Tween-80 (0.2%) (controls), palmitoylguanosine (2.5 μmoles/mouse/day), or palmitoyldeoxyinosine (2.5 μmoles/mouse/day). Twenty-four hours after the 4th or 9th treatment, groups of 5 or 6 animals from each of the 3 groups were bled and then sacrificed by cervical dislocation. Spleens were removed and weighed, and complete blood cell counts performed.

[2] = test system: hematopoietic recovery after 5-fluorouracil; assay: Hematopoietic recovery after 5-fluorouracil (Example 42)
Procedure: 5-fluorouracil (5-FU) (150 mg/kg, i.p.) was administered to forty Balb/C female mice weighing approximately 20 grams each. Twenty-four hours later and each day thereafter for a total of 8 days, mice were given a 0.4 ml i.p. injection of either physiological saline (controls) or 5'-O-palmitoylguanosine (2.5 μmoles/mouse/day in 0.2% Tween 80). On days 7 and 14 following 5-FU administration half of the animals from each group were bled and then were sacrificed by cervical dislocation. Spleens were removed and weighed, and complete blood cells counts performed.

[3] = test system: hematopoietic recovery after cyclophosphamide; assay: Hematopoietic recovery after cyclophosphamide (Example 50); conditions: day 5; 2 μmoles/mouse
Procedure: Cyclophosphamide (CP) (275 mg/kg, i.p.) was administered to 96 Balb/C female mice weighing approximately 20 grams each. Twenty-four hours later and each day thereafter mice were given a 0.4 ml i.p. injection of either Tween-80 (0.2%) (controls), palmitoyldeoxyguanosine (2 μmoles/mouse), palmitoyldeoxyinosine (2 μmoles/mouse), palmitoylacyclovir (2 μmoles/mouse), palmitoylarabinosylguanine (2 μmoles/mouse), palmitoylarabinosylhypoxanthine (2 μmoles/mouse), monopalmitoylguanosine 2',3'-acyclic dialcohol (2 μmoles/mouse), and palmitoyl-8-thioguanosine (2 μmoles/mouse). On days 5 and 7 following CP administration 6 animals in each of the 8 groups were bled and then sacrificed by cervical dislocation. Spleens were removed and weighed, and complete blood cell counts performed.

[4] = test system: hematopoietic recovery after cyclophosphamide; assay: Hematopoietic recovery after cyclophosphamide, acyl chain length (Example 38); conditions: day 7
Procedure: Cyclophosphamide (CP) (275 mg/kg, i.p.) was administered to 70 Balb/C female mice weighing approximately 20 grams each. Twenty-four hours later and each day thereafter for a total of 6 days, mice were given a 0.4 ml i.p injection of either physiological saline (controls), Tween 80 (0.2%), guanosine (5 μmoles/mouse/day in 0.2% Tween 80), or 2.5 μmoles per mouse per day of one of the following acylated derivatives of guanosine in 0.2% Tween 80: triacetylguanosine, octanoylguanosine, lauroylguanosine, or palmitoylguanosine. On day 7 following CP administration all 10 animals from each of the 7 groups were bled, and then sacrificed by cervical dislocation. Spleens were removed and weighed, and complete blood counts performed.

[5] = test system: hematopoietic recovery after cyclophosphamide; assay: Comparative dose-response, hematopoietic recovery after cyclophosphamide (Example 53)
Procedure: Cyclophosphamide (CP) (275 mg/kg, i.p.) was administered to 96 Balb/C female mice weighing approximately 20 grams each. Twenty-four hours later and each day thereafter mice were given a 0.4 ml i.p. injection of either physiological saline (controls), palmitoylguanosine at one of four different doses: 0.2, 0.4, 1.0 or 2.0 μmoles/mouse), or palmitoyldeoxyguanosine at a dose of 1.0 μmoles/mouse. On days 5 and 7 following CP administration 8 animals from each of the 6 groups were bled and then sacrificed by cervical dislocation. Spleens were removed and weighed, and complete blood cell counts performed.

bone marrow cells = assay: Colony forming units in bone marrow of mice recovering from cyclophosphamide (Example 40); conditions: 2.5 μmoles/mouse/day i.p.
Procedure: Seventy-two Balb/C female mice weighing approximately 20 grams each were given cyclophosphamide (275 mg/kg) by intraperitoneal (i.p.) injection. Twenty-four hours later and each day thereafter, mice received a 0.4 ml i.p. injection of either physiological saline (control) or palmitoylguanosine (2.5 μmoles/mouse/day in 0.2% Tween 80). On days 3, 5, 7, and 10 following CP administration 6 animals from each group were sacrificed by cervical dislocation, and the left femur of each animal obtained by sterile means. The bone marrow cells were then flushed from the femurs with McCoy's 5a Modified medium using a 23-gauge needle. Cells from femurs in the same group were pooled, dispersed by briefly vortexing, and counted using a hemocytometer. Cell suspensions were added to McCoy's Modified 5a medium containing 15% bovine calf serum, 1x Kanamycin, 0.3% agar, and 3% endotoxin-stimulated serum. […] Each group was plated in quintuplicate. After 7 days in culture (at 37° in 5% CO2 and humidified air) aggregates of 50 cells or more ("colonies") were counted using a dissecting microscope at 25x.

irradiated mice = assay: Survival of irradiated mice (Example 39); conditions: for mice surviving 30 days after irradiation over number irradiated: 50 mg/kg i.p., 6 days after irradiation
Procedure: Thirty female Balb/C mice weighing 20 grams each were irradiated with Cobalt 60 gamma radiation at a dose rate of 7.3 Rads per minute. The total dose was either 700, 725, or 750 Rads. Twenty-four hours later and each day thereafter for a total of 6 days, these mice received an i.p. injection of either physiological saline (controls) or 50 mg/kg of palmitoylguanosine. The number of animals surviving in each group was observed over a 30 day period.

[6] = test system: hematopoiesis in normal mice; assay: Hematopoiesis in normal mice (Example 56); conditions: day 5; 2.6 μmoles/mouse, 4 days
Summary of the method: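 Normal female Balb/C mice (~20 g; 3 per group) received daily i.p. saline or acylated guanosine derivatives (2.6 μmoles/mouse) for 4 days. On day 5, animals were bled and sacrificed. Spleen weights, complete blood counts and femoral marrow differential counts were recorded.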

[7] = day 5, palmitoylguanosine 2.0, palmitoyldeoxyguanosine 1.0 μmoles/mouse
[8] = day 7, palmitoylguanosine 1.0 and 2.0, palmitoyldeoxyguanosine 1.0 μmoles/mouse

For `CCCCCCCCCCCCCCCC(=O)OC[C@H]1O[C@@H](n2cnc3c(=O)[nH]c(N)nc32)[C@H](O)[C@@H]1O`, the spleen weight ([1]; day 5, 2.5 μmoles/mouse/day i.p.) was “significantly greater”, the total leukocyte counts ([1]; day 10, vs Tween 80) was “significantly elevated” and the spleen weight ([2]; day 7, 2.5 μmoles/mouse/day i.p.) was “slight, but statistically significant, increase in spleen weight”. The other parameters ([2]; day 7, vs control) was “No other differences”, the Lymphocytes ([2]; day 14) was “significantly higher numbers” and the Neutrophils ([2]; day 14) was “significantly higher numbers”. For the same compound, the Platelets ([2]; day 14) was “significantly higher numbers”, the spleen weight ([2]; day 14) was “significantly heavier spleens” and the total leukocytes ([2]; day 14) was “significantly higher numbers”. The spleen weight [3] was “significantly elevated”, the “white blood cell (WBC) counts” value [4] was “greatest effect on total WBC counts” and the spleen weight ([4]; guanosine 5, acyl derivatives 2.5 μmoles/mouse/day i.p.) was “significantly larger spleens”. The total neutrophil counts ([5]; day 5, palmitoylguanosine 1.0 μmoles/mouse) was “significantly increased”, the spleen weight [5, 7] was “significantly elevated” and the total neutrophil counts [5, 7] was “significantly elevated”. For the same compound, the “white blood cell counts” value [5, 7] was “significantly elevated”, the spleen weight [5, 8] was “significantly elevated” and the total neutrophil counts [5, 8] was “significantly elevated”. The “white blood cell counts” value [5, 8] was “significantly elevated”, the colony-forming units (bone marrow cells; day 3) was 645 ± 26 colonyforming units per femur and the colony-forming units (bone marrow cells; day 5) was 2327 ± 121 colonyforming units per femur. For the same compound, the colony-forming units (bone marrow cells; day 7) was 1328 ± 140 colonyforming units per femur, the colony-forming units (bone marrow cells; day 10) was 647 ± 25 colonyforming units per femur and the mice surviving (irradiated mice; 2 higher radiation doses, 30 days) was “all of the mice treated with palmitoylguanosine survived”. For the same compound, the “mice surviving 30 days after irradiation over number irradiated” value (irradiated mice; 725 R) was 5/5, the “mice surviving 30 days after irradiation over number irradiated” value (irradiated mice; 750 R) was 5/5 and the survival (irradiated mice; pretreatment prior to irradiation) was “improved survival”. For the same compound, the spleen weight [6] was “significantly elevated”.
